According to US8420605B2, “Hydrogel compositions” (The University of Strathclyde, priority 2005, dated 2013):
Peptide text beside a SMILES is read from it. * marks the point of attachment. Fmoc = O=C(OCC1c2ccccc2-c2ccccc21)*

How the values were obtained:
Format in all cases: cell-based
Human dermal fibroblasts = assay: Cell phenotype and size comparison in RGD/RGE-containing hydrogels (inverted optic microscope); conditions: after 24 hours, 3D culture, 1 mM/L RGD or RGE peptide with Fmoc-Phe-Phe-OH
Protocol: Fmoc-SEQ. ID. NO. 1-OH (Fmoc-SEQ. ID. NO. 1) adhesion motifs were introduced to tackle the issue of un-spreaded cells in Fmoc-Phe-Phe-OH gels therefore to induce spreading and focal adhesion of dermal fibroblasts in these self-assembled peptide hydrogels. Fmoc-Phe-Phe-OH and Fmoc-Phe-Phe-OH+Fmoc-SEQ. ID. NO. 2-OH (Fmoc-SEQ. ID. NO. 2) combination were set as comparisons.
0.0014 grams of Fmoc-SEQ. ID. NO. 1or Fmoc-SEQ. ID. NO. 2(1 mM/L in later hydrogels), were weighed and mixed with 0.0107 grams Fmoc-Phe-Phe-OH respectively into glass vials, and 0.0107 grams Fmoc-Phe-Phe-OH alone was weighed as well. The above peptide and peptide mixtures were sterilized for 30 minutes by an ultraviolet light exposure with bottles of distilled water, filtered NaOH (Sodium Hydroxide, 0.5 M/L), filtered HCl (Hydrochloric Acid, 0.5 M/L), and relevant apparatus (spatulas, pipettes, Vortex). 2 mL of the sterile distilled water was then added into each glass vial of Fmoc-Phe-Phe-OH, Fmoc-Phe-Phe-OH+Fmoc-SEQ. ID. NO. 1, and Fmoc-Phe-Phe-OH+Fmoc-SEQ. ID. NO. 2, and the mixtures were vortexed for a few seconds to create suspensions. […] The basic peptide solutions (pH around 10) were finally neutralized to pH 7 by dropwise addition of HCl and pH values were monitored by a pH meter with a micro-probe. […]

bovine chondrocytes = assay: Culture of chondrocytes on/in hydrogel scaffold (proliferation and retention of phenotype); conditions: cell culture of up to 7 days
Protocol: Bovine chondrocytes were isolated from cartilage of the proximal side of the metacarpalphalangeal joint, washed in PBS and incubated overnight in Dulbeccos Modified Eagles Medium (DMEM) supplemented with 10% foetal calf serum, 100 units ml^−1 penicillin/streptomycin and 0.85 mM ascorbic acid. The cartilage was finely chopped and incubated with pronase type E (700 units ml^−1) (BDH Ltd., Poole, UK) in medium for 2 h followed by collagenase type 1a (300 units ml^−1) (SIGMA-ALDRICH Co. Ltd., Poole, UK) in medium for 2 h. The cell suspension was centrifuged at 1500 rpm for 5 min to pellet the cells. The cells were washed twice in medium and seeded directly onto the peptide scaffolds (and tissue culture plastic control) or encapsulated within the scaffolds during the gelation stage at a cell density of 5×10^5 ml^−1 in medium. The cultures were maintained in an incubator at 37° C. with a humidified atmosphere of 5% CO2 for up to 4 weeks. Chondrocytes were used up to passage 5.
Finally, all three gels prepared (ie. entries 1, 2 and 3) were tested for their ability to support proliferation and retention of phenotype of bovine chondrocytes. […]
The rounded cell shape is the typical phenotype for chondrocytes. […] Two-photon fluorescence microscopy was used to observe samples stained with DAPI, a fluorescent nucleic acid stain that enables visualisation of cell nuclei.

[1] = system: human adult dermal fibroblasts; assay: 2D culture on surface of self-assembled peptide hydrogel, cell phenotype under inverted light microscope; conditions: for appearance of fibroblasts on top of hydrogel: 10 mM/L gel
Protocol: An initial 2D culture of human adult dermal fibroblasts was carried out on the surface of 10 mM/L Fmoc-Phe-Phe-OH self-assembled peptide hydrogels and cell phenotype was investigated under inverted light microscope.
Generally, 0.0107 gram of Fmoc-Phe-Phe-OH was weighed in a glass vial and sterilized for 30 minutes by an ultraviolet light with bottles of distilled water, filtered NaOH (Sodium Hydroxide, 0.5 M/L), filtered HCl (Hydrochloric Acid, 0.5 M/L), and relevant apparatus (spatulas, pipettes, Vortex). 2 mL of the sterile distilled water was then added into the glass vial of Fmoc-Phe-Phe, and the mixture was vortexed for a few seconds to create a suspension. Afterwards, approximate 100 μL of NaOH was gradually pipetted into the suspension (20 μL each pipetting) and the mixture was vortexed after every addition of the alkaline. The whole mixture was shaken continually until a homogeneous transparent solution was obtained. The basic peptide solution (pH around 10) was finally neutralized to pH 7 by dropwise addition of HCl and pH values were monitored by a pH meter with a micro-probe.
The above peptide solutions of physiological pH were aliquoted into a 24 well-plate with 500 μL in each well and the well plate was maintained in a 37° C./5% CO2 incubator overnight. The solution underwent a self-assembling to become hydrogels. Human adult dermal fibroblasts in suspension were then poured on top of the self-assembled hydrogels with 1 mL cell suspension for each well. Cell suspensions of 8×10^4/mL were used with a serum-free DMEM (Dulbecco's modified Eagle's medium) supplemented by 1% antibiotics/antimicotics. […] These originally spreaded cells, however, became rounded with a diameter of around 10 microns between 24 and 72 hours. The phenomenon indicated of a dynamic solid (gel)-liquid (culture medium) interface which formed a malleable, unstable gel surface to wrap and sink cells into the interacted nano-filaments of the gel structure resulting the cells' rounding up.

With `O=C(N[C@@H](Cc1ccccc1)C(=O)N[C@@H](Cc1ccccc1)C(=O)O)OCC1c2ccccc2-c2ccccc21` [Entry 1, Fmoc-Phe-Phe-OH] (Fmoc-Phe-Phe-OH) the average cell size (Human dermal fibroblasts) was “around 20 microns”, the “retention of morphological phenotype and proliferation of chondrocytes” value (bovine chondrocytes) was “cell morphological phenotype is retained” and the “appearance of fibroblasts on top of hydrogel” value (from here on “appearance of fibroblasts”) ([1]; 4 hours, 2D culture) was “spreaded”. The “appearance of fibroblasts” value ([1]; 6 hours, 2D culture) was “spreaded”, the “appearance of fibroblasts” value ([1]; 24 hours, 2D culture) was “rounded” and the “diameter of rounded cells” value ([1]; between 24 and 72 hours, 2D culture) was “around 10 microns”. For the same compound, the “cell attachment and spreading” value ([1]; within the first 8 hours of culturing, 2D) was “cell attachment and spreading was observed”.
